In patent US8263567B2, “Treatment of hyperproliferative conditions of body surfaces” (Valderm APS, priority 2001, dated 2012):

How the values were obtained:
[1] = tested on: DNA Synthesis; details: grade and speed (rapid/slow); cited from earlier work
[2] = tested on: RNA Synthesis; details: grade and speed (rapid/slow); cited from earlier work
[3] = cited from earlier work
[4] = tested on: psoriasis vulgaris; experiment: Clinical trial, topical therapy of psoriasis vulgaris (Examples 11-16); format: in vivo, human
Protocol: A patient having dermal manifestations of psoriasis vulgaris was selected for therapy using the invention. Valrubicin was prepared as a solution (ref ex, 5) at a concentration of 2% (weight/weight) and was applied to the affected skin once daily. The patient was monitored for improvement in their manifestations of psoriasis. […] A patient having dermal manifestations of psoriasis vulgaris was selected for therapy using the invention. Valrubicin was prepared as a solution (ref ex. 8) at a concentration of 0.5% (weight/weight) and was applied to the affected skin once daily. The patient was monitored for improvement in their manifestations of psoriasis. […] A patient having dermal manifestations of psoriasis vulgaris was selected for therapy using the invention. Valrubicin was prepared as a gel (ref ex. 6) at a concentration of 1% (weight/weight) and was applied to the affected skin once daily. The patient was monitored for improvement in their manifestations of psoriasis. […] A patient having dermal manifestations of psoriasis vulgaris was selected for therapy using the invention. Valrubicin was prepared as a solution (ref. ex 5) at a concentration of 2.0% (weight/weight) and was applied to the affected skin twice daily. The patient was monitored for improvement in their manifestations of psoriasis. […] A patient having dermal manifestations of psoriasis vulgaris was selected for therapy using the invention. Valrubicin was prepared as a solution (ref. ex 5) at a concentration of 2.0 (weight/weight) and was applied to the affected skin twice a week. The patient was monitored for improvement in their manifestations of psoriasis. […] A patient having dermal manifestations of psoriasis vulgaris was selected for therapy using the invention. Valrubicin was prepared as a solution (ref. ex 5) at a concentration of 2.0% (weight/weight) and was applied to the affected skin once a week. The patient was monitored for improvement in their manifestations of psoriasis.

[5] = 40 mg/ml intravesical instillation of two hours, 6 times once a week; cited from earlier work
[6] = compared to other anthracyclines; cited from earlier work
[7] = tested on: normal dermal epithelium; details: histopathological animal experiments; cited from earlier work
[8] = concentration similar to that used in treatment of bladder cancer; cited from earlier work
[9] = in vivo; cited from earlier work
[10] = paravenous injection; cited from earlier work

COc1cccc2c1C(=O)c1c(O)c3c(c(O)c1C2=O)C[C@@](O)(C(=O)CO)C[C@@H]3O[C@H]1C[C@H](N)[C@H](O)[C@H](C)O1 [Doxorubicin]
DNA Synthesis inhibition [1]: +++ (slow)
RNA Synthesis inhibition [2]: + (slow)
In vivo elimination [3]: Slow
In vivo metabolism [3]: Minimal

CCCCC(=O)OCC(=O)[C@]1(O)Cc2c(O)c3c(c(O)c2[C@@H](O[C@H]2C[C@H](NC(=O)C(F)(F)F)[C@H](O)[C@H](C)O2)C1)C(=O)c1c(OC)cccc1C3=O [Valrubicin, N-trifluoroacetyladriamycin-14-valerate]
Skin lesions of psoriasis ([4]; gel (ex. 6) 1% w/w, once daily): skin lesions had subsided
Skin lesions of psoriasis ([4]; solution (ex. 5) 2.0% w/w, once a week): skin lesions had subsided
Skin lesions of psoriasis ([4]; solution (ex. 5) 2% w/w, once daily): skin lesions had subsided
Skin lesions of psoriasis ([4]; solution (ex. 5) 2.0% w/w, twice daily): skin lesions had subsided
Skin lesions of psoriasis ([4]; solution (ex. 5) 2.0 (weight/weight), twice a week): skin lesions had subsided
Skin lesions of psoriasis ([4]; solution (ex. 8) 0.5% w/w, once daily): skin lesions had subsided
DNA Synthesis inhibition [1]: +++ (rapid)
RNA Synthesis inhibition [2]: +++ (rapid)
In vivo elimination [3]: rapid
In vivo metabolism [3]: Extensive
Depth into the epithelium of the bladder at which an effective concentration is found [5]: 1800 μm
Systemic uptake [5]: does not result in systemic uptake
Lipophilicity [6]: very lipophilic
Effect on normal dermal epithelium [7]: does not affect normal dermal epithelium
Irritation of skin and eyes [8]: mild to no irritation
Cardiotoxicity and haematological toxicity versus other anthracyclines [9]: less cardiotoxic and haematologically toxic

COc1cccc2c1C(=O)c1c(O)c3c(c(O)c1C2=O)C[C@@](O)(C(=O)CO)C[C@@H]3O[C@H]1C[C@H](N)[C@@H](O)[C@H](C)O1 [epirubicin]
Local tissue toxicity [10]: severe necrosis
